The target of one assay is CDK2/Cyclin E1 (Homo sapiens, UniProt P24941). Briefly: CDK2/Cyclin E1 Biochemical Assay (TR-FRET), 0.060 mM ATP. The note with it: 0.15 μM Rb (Ser780)-biotin substrate, pH7.0, 60 min preincubation, 120 min reaction, room temperature. A digest of the protocol: (§1)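 Kinase preincubated with compound (0–10 μM) 60 min at room temperature, then reaction started with ATP and 0.15 μM Rb (Ser780)-biotin peptide and run 120 min in HEPES pH 7.0 buffer with 50 mM MgCl2. Phospho-Rb detected by Eu-cryptate anti-pRb(Ser780)/streptavidin-XL665 TR-FRET (665/620 nm ratio); IC50 from four-parameter logistic fit.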
A general note: TR-FRET usually uses a lanthanide donor and a delayed reading to cut background.

In the next assay the target is CDK1/Cyclin B1 (Homo sapiens, UniProt P06493). The assay can be described thus: CDK1/Cyclin B1 Biochemical Assay (TR-FRET), 0.015 mM ATP. The note with it: 0.15 μM Rb (Ser780)-biotin substrate, pH7.0, 60 min preincubation, 120 min reaction, room temperature. A digest of the protocol: as §1
CDK1/Cyclin B1, sequence (P06493 whole entry): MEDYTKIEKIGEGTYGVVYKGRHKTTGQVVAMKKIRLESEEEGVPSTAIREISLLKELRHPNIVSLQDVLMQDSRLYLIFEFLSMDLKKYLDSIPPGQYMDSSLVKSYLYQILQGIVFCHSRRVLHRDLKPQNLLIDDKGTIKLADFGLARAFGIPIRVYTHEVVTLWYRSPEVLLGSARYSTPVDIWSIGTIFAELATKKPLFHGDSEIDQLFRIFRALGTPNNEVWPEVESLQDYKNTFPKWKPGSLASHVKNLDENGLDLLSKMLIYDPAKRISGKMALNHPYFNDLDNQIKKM
CDK1/Cyclin B1, sequence (P14635 whole entry partner): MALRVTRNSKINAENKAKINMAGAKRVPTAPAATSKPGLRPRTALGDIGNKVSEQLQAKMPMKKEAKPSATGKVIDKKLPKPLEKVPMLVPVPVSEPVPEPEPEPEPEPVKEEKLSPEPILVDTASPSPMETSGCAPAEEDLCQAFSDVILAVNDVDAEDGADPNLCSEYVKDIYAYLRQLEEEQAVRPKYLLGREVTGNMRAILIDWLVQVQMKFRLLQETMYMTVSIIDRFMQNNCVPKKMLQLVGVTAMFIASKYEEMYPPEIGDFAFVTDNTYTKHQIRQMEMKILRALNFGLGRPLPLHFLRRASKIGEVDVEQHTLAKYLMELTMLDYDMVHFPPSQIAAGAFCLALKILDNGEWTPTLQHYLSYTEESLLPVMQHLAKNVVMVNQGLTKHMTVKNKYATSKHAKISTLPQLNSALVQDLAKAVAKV

`CC(C)NC(=O)O[C@H]1CC[C@@H](c2cc(Nc3cc(CO)c4c(c3F)CNS4(=O)=O)n[nH]2)C1` (relative stereo) [Example 365, cis-3-(3-((4-fluoro-7-(hydroxymethyl)-1,1-dioxido-2,3-dihydrobenzo[d]isothiazol-5-yl)amino)-1H-pyrazol-5-yl)cyclopentyl isopropylcarbamat]: the IC50 at CDK2/Cyclin E1 and against CDK1/Cyclin B1 was above 10000 nM throughout.

Take `CCCNC(=O)O[C@H]1CC[C@@H](c2cc(Nc3cc(CO)c4c(c3F)CNS4(=O)=O)n[nH]2)C1` (relative stereo) [Example 366, cis-3-(3-((4-fluoro-7-(hydroxymethyl)-1,1-dioxido-2,3-dihydrobenzo[d]isothiazol-5-yl)amino)-1H-pyrazol-5-yl)cyclopentyl propylcarbamate]: the IC50 at CDK2/Cyclin E1 and against CDK1/Cyclin B1 was above 10000 nM in each case.

On to `COCC(C)NC(=O)O[C@H]1CC[C@@H](c2cc(Nc3ccc4c(c3F)CS(=O)(=O)N4C3CC3)n[nH]2)C1` (relative stereo) [Example 367, cis-3-(3-((1-cyclopropyl-4-fluoro-2,2-dioxido-1,3-dihydrobenzo[c]isothiazol-5-yl)amino)-1H-pyrazol-5-yl)cyclopentyl(1-methoxypropan-2-yl)carbamate], for which the figures for the IC50 at CDK2/Cyclin E1 and against CDK1/Cyclin B1 were 1.7 nM and 117 nM, respectively.

Regarding `CC1(NC(=O)O[C@H]2CC[C@@H](c3cc(Nc4ccc5c(c4F)CS(=O)(=O)N5C4CC4)n[nH]3)C2)CCOC1` (relative stereo) [Example 368, cis-3-(3-((1-cyclopropyl-4-fluoro-2,2-dioxido-1,3-dihydrobenzo[c]isothiazol-5-yl)amino)-1H-pyrazol-5-yl)cyclopentyl(3-methyltetrahydrofuran-3-yl)carbamate], the IC50 (in general, the concentration that inhibits the measured activity by half) stood at 1.2 nM on CDK2/Cyclin E1 and 95 nM on CDK1/Cyclin B1.

As for `COCC(C)(C)NC(=O)O[C@H]1CC[C@@H](c2cc(Nc3ccc4c(c3)CS(=O)(=O)N4C)n[nH]2)C1` (relative stereo) [Example 369, cis-3-(3-((1-methyl-2,2-dioxido-1,3-dihydrobenzo[c]isothiazol-5-yl)amino)-1H-pyrazol-5-yl)cyclopentyl(1-methoxy-2-methylpropan-2-yl)carbamate], the IC50 is 0.7 nM against CDK2/Cyclin E1 and 13 nM against CDK1/Cyclin B1.

With `COCC(C)(C)NC(=O)O[C@H]1CC[C@@H](c2cc(Nc3ccc4c(c3)CS(=O)(=O)N4)n[nH]2)C1` (relative stereo) [Example 370, cis-3-(3-((2,2-dioxido-1,3-dihydrobenzo[c]isothiazol-5-yl)amino)-1H-pyrazol-5-yl)cyclopentyl(1-methoxy-2-methylpropan-2-yl)carbamate], the values for the IC50 against CDK2/Cyclin E1 and on CDK1/Cyclin B1 were 1.1 nM and 9.7 nM, respectively.

As for `COCC(C)(C)NC(=O)O[C@H]1CC[C@@H](c2cc(Nc3ccc4c(c3F)CN(C3CC3)S4(=O)=O)n[nH]2)C1` (relative stereo) [Example 371, cis-3-(3-((2-cyclopropyl-4-fluoro-1,1-dioxido-2,3-dihydrobenzo[d]isothiazol-5-yl)amino)-1H-pyrazol-5-yl)cyclopentyl(1-methoxy-2-methylpropan-2-yl)carbamate], the IC50 was determined as 3.5 nM against CDK2/Cyclin E1 and 265 nM on CDK1/Cyclin B1.

On to `CC1(NC(=O)O[C@H]2CC[C@@H](c3cc(Nc4ccc5c(c4F)CN(C4CC4)S5(=O)=O)n[nH]3)C2)COC1` (relative stereo) [Example 372, cis-3-(3-((2-cyclopropyl-4-fluoro-1,1-dioxido-2,3-dihydrobenzo[d]isothiazol-5-yl)amino)-1H-pyrazol-5-yl)cyclopentyl(3-methyloxetan-3-yl)carbamate], for which the IC50 against CDK2/Cyclin E1 was determined as 6.8 nM; against CDK1/Cyclin B1, 395 nM.

In the case of `O=C(O[C@H]1CC[C@@H](c2cc(Nc3ccc4c(c3F)CNS4(=O)=O)n[nH]2)C1)N1CCOCC1` (relative stereo) [Example 373, cis-3-(3-((4-fluoro-1,1-dioxido-2,3-dihydrobenzo[d]isothiazol-5-yl)amino)-1H-pyrazol-5-yl)cyclopentyl morpholine-4-carboxylate], the IC50 at CDK2/Cyclin E1 was found to be 45 nM; against CDK1/Cyclin B1, 1380 nM.

`CC1(NC(=O)O[C@H]2CC[C@@H](c3cc(Nc4ccc5c(c4F)CS(=O)(=O)N5)n[nH]3)C2)COC1` (relative stereo) [Example 374, cis-3-(3-((4-fluoro-2,2-dioxido-1,3-dihydrobenzo[c]isothiazol-5-yl)amino)-1H-pyrazol-5-yl)cyclopentyl(3-methyloxetan-3-yl)carbamate]: the results for the IC50 at CDK2/Cyclin E1 and against CDK1/Cyclin B1 were 5.7 nM and 118 nM, respectively.

For the compound `CC1(NC(=O)O[C@H]2CC[C@@H](c3cc(Nc4ccc5c(c4F)CS(=O)(=O)N5)n[nH]3)C2)CCOC1` (relative stereo) [Example 375, cis-3-(3-((4-fluoro-2,2-dioxido-1,3-dihydrobenzo[c]isothiazol-5-yl)amino)-1H-pyrazol-5-yl)cyclopentyl(3-methyltetrahydrofuran-3-yl)carbamate], the IC50 came to 4.6 nM against CDK2/Cyclin E1 and 95 nM on CDK1/Cyclin B1.

For the compound `COCC(C)(C)NC(=O)O[C@H]1CC[C@@H](c2cc(Nc3ccc4c(c3F)CS(=O)(=O)N4)n[nH]2)C1` (relative stereo) [Example 376, cis-3-(3-((4-fluoro-2,2-dioxido-1,3-dihydrobenzo[c]isothiazol-5-yl)amino)-1H-pyrazol-5-yl)cyclopentyl(1-methoxy-2-methylpropan-2-yl)carbamate], the figures for the IC50 at CDK2/Cyclin E1 and against CDK1/Cyclin B1 were 2.1 nM and 31 nM, respectively.

Consider `COCC(C)(C)NC(=O)O[C@H]1CC[C@@H](c2cc(Nc3ccc4c(c3F)CS(=O)(=O)N4C)n[nH]2)C1` (relative stereo) [Example 377, cis-3-(3-((4-fluoro-1-methyl-2,2-dioxido-1,3-dihydrobenzo[c]isothiazol-5-yl)amino)-1H-pyrazol-5-yl)cyclopentyl(1-methoxy-2-methylpropan-2-yl)carbamate], for which the IC50 was 1.1 nM against CDK2/Cyclin E1 and 45 nM against CDK1/Cyclin B1.

On to `CC(C)NC(=O)O[C@H]1CO[C@@H](c2cc(Nc3ccc4c(c3F)CNS4(=O)=O)n[nH]2)C1` (relative stereo) [Example 378, 5-(3-((4-fluoro-1,1-dioxido-2,3-dihydrobenzo[d]isothiazol-5-yl)amino)-1H-pyrazol-5-yl)tetrahydrofuran-3-yl isopropylcarbamate], for which the IC50 against CDK2/Cyclin E1 came to 9.3 nM; against CDK1/Cyclin B1, 496 nM.

With `COCC(C)(C)NC(=O)O[C@H]1CC[C@@H](c2cc(Nc3ccc4c(c3F)CN(C)S4(=O)=O)n[nH]2)C1` (relative stereo) [Example 379, cis-3-(3-((4-fluoro-2-methyl-1,1-dioxido-2,3-dihydrobenzo[d]isothiazol-5-yl)amino)-1H-pyrazol-5-yl)cyclopentyl(1-methoxy-2-methylpropan-2-yl)carbamate], the IC50 against CDK2/Cyclin E1 was 4.5 nM; against CDK1/Cyclin B1, 230 nM.

For the compound `O=C(O[C@H]1CC[C@@H](c2cc(Nc3ccc4c(c3)CS(=O)(=O)N4)n[nH]2)C1)N1CCOCC1` (relative stereo) [Example 382, cis-3-(3-((2,2-dioxido-1,3-dihydrobenzo[c]isothiazol-5-yl)amino)-1H-pyrazol-5-yl)cyclopentyl morpholine-4-carboxylate], the IC50 on CDK2/Cyclin E1 was 9.7 nM; at CDK1/Cyclin B1, 214 nM.

In the case of `O=C(NC1(CO)CCC1)O[C@H]1CC[C@@H](c2cc(Nc3ccc4c(c3F)CNS4(=O)=O)n[nH]2)C1` (relative stereo) [Example 385, cis-3-(3-((4-fluoro-1,1-dioxido-2,3-dihydrobenzo[d]isothiazol-5-yl)amino)-1H-pyrazol-5-yl)cyclopentyl(1-(hydroxymethyl)cyclobutyl)carbamate], the values for the IC50 against CDK2/Cyclin E1 and against CDK1/Cyclin B1 were 1.9 nM and 138 nM, respectively.

As to `CN1c2ccc(Nc3cc([C@@H]4CC[C@H](OC(=O)NC5(CO)CCC5)C4)[nH]n3)cc2CS1(=O)=O` (relative stereo) [Example 386, cis-3-(3-((1-methyl-2,2-dioxido-1,3-dihydrobenzo[c]isothiazol-5-yl)amino)-1H-pyrazol-5-yl)cyclopentyl(1-(hydroxymethyl)cyclobutyl)carbamate], the IC50 was found to be 1 nM on CDK2/Cyclin E1 and 28 nM against CDK1/Cyclin B1.

For the compound `CC(C)NC(=O)O[C@H]1CC[C@@H](c2cc(Nc3ccc4c(c3F)CS(=O)(=O)N4CCCO)n[nH]2)C1` (relative stereo) [Example 389, cis-3-(3-((4-fluoro-1-(3-hydroxypropyl)-2,2-dioxido-1,3-dihydrobenzo[c]isothiazol-5-yl)amino)-1H-pyrazol-5-yl)cyclopentyl isopropylcarbamate], the IC50 against CDK2/Cyclin E1 is 1.3 nM; at CDK1/Cyclin B1, 74 nM.

Regarding `CC1(NC(=O)O[C@H]2CC[C@@H](c3cc(Nc4ccc5c(c4F)CS(=O)(=O)N5CCO)n[nH]3)C2)COC1` (relative stereo) [Example 390, cis-3-(3-((4-fluoro-1-(2-hydroxyethyl)-2,2-dioxido-1,3-dihydrobenzo[c]isothiazol-5-yl)amino)-1H-pyrazol-5-yl)cyclopentyl(3-methyloxetan-3-yl)carbamate], the IC50 on CDK2/Cyclin E1 turned out to be 2.5 nM; at CDK1/Cyclin B1 it was 236 nM.

Turning to `CC1(NC(=O)O[C@H]2CC[C@@H](c3cc(Nc4ccc5c(c4)CS(=O)(=O)N5)n[nH]3)C2)CCOC1` (relative stereo) [Example 392, cis-3-(3-((2,2-dioxido-1,3-dihydrobenzo[c]isothiazol-5-yl)amino)-1H-pyrazol-5-yl)cyclopentyl(3-methyltetrahydrofuran-3-yl)carbamate], the IC50 at CDK2/Cyclin E1 is 1.1 nM; at CDK1/Cyclin B1 it was 10 nM.

For the compound `CC1(NC(=O)O[C@H]2CC[C@@H](c3cc(Nc4ccc5c(c4F)CS(=O)(=O)N5CCO)n[nH]3)C2)CCOC1` (relative stereo) [Example 393, cis-3-(3-((4-fluoro-1-(2-hydroxyethyl)-2,2-dioxido-1,3-dihydrobenzo[c]isothiazol-5-yl)amino)-1H-pyrazol-5-yl)cyclopentyl(3-methyltetrahydrofuran-3-yl)carbamate], the figures for the IC50 against CDK2/Cyclin E1 and at CDK1/Cyclin B1 were 1.9 nM and 119 nM, respectively.

The values above are taken from patent US20260297080A1, “BICYCLIC COMPOUNDS AS CDK INHIBITORS” (BeOne Medicines I GmbH, priority 2022, published 2026).
